Publication PMC12064818, “A general assay platform to study protein pharmacology using ligand-dependent structural dynamics” (Nature Communications, 2025)

What was measured:
[1] = molecular target: P. pyralis FLuc (Photinus pyralis, UniProt P08659); assay: FLuc enzymatic luminescence assay, P. pyralis FLuc; format: biochemical; parameters: CC-v2: scale not given here; details: for Efficacy (%) FLuc E: Clade S follow-up
Method: The enzyme activity of FLuc-N-HiBiT, FLuc-C-HiBiT, and FLuc-C-NLuc was measured similar to P. pyralis firefly luciferase (FLuc) as previously described. […] Compounds and controls were added to each plate as described in Supplementary Data 8 with a Hornet pintool system (Wako Automation). Compounds were incubated with respective enzymes for 30–60 min at room temperature protected from light and covered by solid metal lid to prevent evaporation. […] Luciferin was incubated with FLuc enzyme for 5 min before FLuc activity was then measured on a ViewLux CCD imager (PerkinElmer), with exposure times up to ten seconds with medium to high gain settings. Data were normalized to average no enzyme control as 100% enzyme inhibition and average DMSO neutral control. See Supplementary Table 4 for additional details.
Assays were run in the presence (solid symbols) or absence
(open symbols) of 10 µM ATP. Corresponding SMIL E S for NC GC IDs and source data are provided in
Supplementary Data 3 and as a Source Data file. 10
Supplementary Table 4. Protocol for Firefly luciferase (FLuc) and NanoLuc (NLuc) enzymatic
Supplementary Table 4: Protocol for Firefly luciferase (FLuc) and NanoLuc (NLuc) enzym atic lum inescence assay
Firefly luciferase (FLuc) enzym atic lum inescence assay
Sequence Param eter Value Description
No enzym e control (colum n 1) and enzym e solution (1- 10 nM FLuc enzym e) in FLuc assay
1 Reagent 4 µLbuffer; white/solid bottom , m edium bind, high base plates (Greiner), dispensed with BioRaptr
com pounds transferred to respective colum ns with Pintool
2b Test Com pounds 23 nLconcentration range) in colum ns 5- 48; com pounds transferred to respective wells with
3 Incubation 30 m in Incubate enzym e + com pounds at am bient tem p for 30 m in, protected from light
4 Reagent 3 µLAdd 3 µL of D-luciferin substrate solution to each well (final concentration 10 µM); dispensed
5 Detector ViewLux Read plate lum inescence (Exposure = 1- 10 sec; Gain = Medium -high; Speed = Slow;
Dispensing solution was diluted in 1X PBS, pH 7.4. […]

[2] = molecular target: FLuc-C-NLuc (firefly luciferase) (Photinus pyralis, UniProt P08659, form not given/L550V); assay: SDR assay, FLuc-C-NLuc; details: - ATP
[3] = molecular target: FLuc-C-HiBiT (firefly luciferase) (Photinus pyralis, UniProt P08659, form not given/L550V); assay: SDR assay, FLuc-C-HiBiT; details: SDR max. response, clade S
[4] = molecular target: T1, FLuc-C-HiBiT (Photinus pyralis, UniProt P08659); assay: biochemical; details: enzyme activity, 10 uM ATP; read-out: IC50 or SDR50 (mM) / FLuc E
T1 construct: firefly luciferase with C-terminal HiBiT tag, E. coli expressed
T1 sequence (P08659 whole entry, looked up): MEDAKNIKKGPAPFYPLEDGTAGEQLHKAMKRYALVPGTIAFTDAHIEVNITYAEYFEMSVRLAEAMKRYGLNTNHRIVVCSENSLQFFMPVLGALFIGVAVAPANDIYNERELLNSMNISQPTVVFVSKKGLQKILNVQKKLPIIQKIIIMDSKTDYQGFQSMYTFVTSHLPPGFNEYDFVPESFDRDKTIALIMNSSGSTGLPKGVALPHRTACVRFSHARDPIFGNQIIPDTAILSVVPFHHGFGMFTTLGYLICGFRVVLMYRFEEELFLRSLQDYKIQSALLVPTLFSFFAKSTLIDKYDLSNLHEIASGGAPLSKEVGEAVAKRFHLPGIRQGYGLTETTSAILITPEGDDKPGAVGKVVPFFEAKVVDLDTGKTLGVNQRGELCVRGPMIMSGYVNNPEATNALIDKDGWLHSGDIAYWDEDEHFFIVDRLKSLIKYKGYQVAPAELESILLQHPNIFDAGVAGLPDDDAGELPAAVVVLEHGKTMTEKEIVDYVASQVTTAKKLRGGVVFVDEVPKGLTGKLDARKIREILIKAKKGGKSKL

Sequence of FLuc-C-NLuc (firefly luciferase) (P08659 2-550 L550V, form open): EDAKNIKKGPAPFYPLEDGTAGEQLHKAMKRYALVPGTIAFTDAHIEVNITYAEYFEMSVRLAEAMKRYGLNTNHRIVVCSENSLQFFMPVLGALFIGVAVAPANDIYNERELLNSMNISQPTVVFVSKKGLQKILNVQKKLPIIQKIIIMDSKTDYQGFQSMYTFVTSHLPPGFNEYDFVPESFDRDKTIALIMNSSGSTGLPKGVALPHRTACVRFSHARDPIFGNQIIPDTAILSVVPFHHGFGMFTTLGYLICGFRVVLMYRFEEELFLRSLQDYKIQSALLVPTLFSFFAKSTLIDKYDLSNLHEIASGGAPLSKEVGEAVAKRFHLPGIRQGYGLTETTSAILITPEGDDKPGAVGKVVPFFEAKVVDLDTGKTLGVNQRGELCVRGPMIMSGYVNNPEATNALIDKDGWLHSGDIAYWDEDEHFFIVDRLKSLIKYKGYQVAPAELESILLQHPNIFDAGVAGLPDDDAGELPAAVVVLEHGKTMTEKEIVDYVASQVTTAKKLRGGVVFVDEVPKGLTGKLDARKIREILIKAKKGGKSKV
Sequence of FLuc-C-HiBiT (firefly luciferase) (P08659 2-550 L550V, form open): as above
Sequence of P. pyralis FLuc (P08659 whole entry): as the sequence (P08659 whole entry, looked up) above

Row | SMILES | IC50 [4] [µM] | also measured
1 | Cc1ccc(C2Cn3cnc(C(=O)N4CCC(C(=O)NCCC(C)C)CC4)c3CO2)cc1 (stereo not shown) [NCGC00422121-01] |  | Efficacy (%) FLuc E ([1]; FLuc enzymatic assay): -26.32%; IC50 ([1]; FLuc enzymatic assay, read-out: IC50 or SDR50 (mM) FLuc E): 0.0139 mM; AC50 ([1]; Sample Data Type FLuc-Km): 13.9 µM; CC-v2 ([1]; Sample Data Type FLuc-Km): -2.4; Efficacy ([1]; Sample Data Type FLuc-Km): -26.32; Hill Coef ([1]; Sample Data Type FLuc-Km): 1.21; Inf Activity ([1]; Sample Data Type FLuc-Km): -27.95; Max Resp ([1]; Sample Data Type FLuc-Km): -21.63; Zero Activity ([1]; Sample Data Type FLuc-Km): -1.63; Efficacy (%) FLuc-C-NLuc SDR (-ATP) [2]: 0.00%; % Activity (max response, + ATP) [3]: 49.59%; % Activity (max response, - ATP) [3]: 0.00%
2 | CC(C)CCNC(=O)C1CCN(C(=O)c2ncn3c2COC(c2ccc(F)cc2)C3)CC1 (stereo not shown) [NCGC00423180-01] |  | Efficacy (%) FLuc E ([1]; FLuc enzymatic assay): -22.97%; CC-v2 ([1]; Sample Data Type FLuc-Km): 4; Efficacy ([1]; Sample Data Type FLuc-Km): -22.97; Hill Coef ([1]; Sample Data Type FLuc-Km): 2.25; Inf Activity ([1]; Sample Data Type FLuc-Km): -22.47; Max Resp ([1]; Sample Data Type FLuc-Km): -18.73; Zero Activity ([1]; Sample Data Type FLuc-Km): 0.50; Efficacy (%) FLuc-C-NLuc SDR (-ATP) [2]: 0.00%; % Activity (max response, + ATP) [3]: 35.19%; % Activity (max response, - ATP) [3]: 0.00%
3 | CCC(CC)NC(=O)C1CCN(C(=O)c2ncn3c2COC(c2ccc(F)cc2)C3)CC1 (stereo not shown) [NCGC00430454-01] |  | Efficacy (%) FLuc E ([1]; FLuc enzymatic assay): -16.84%; CC-v2 ([1]; Sample Data Type FLuc-Km): 4; Efficacy ([1]; Sample Data Type FLuc-Km): -16.84; Hill Coef ([1]; Sample Data Type FLuc-Km): 1.51; Inf Activity ([1]; Sample Data Type FLuc-Km): -9.34; Max Resp ([1]; Sample Data Type FLuc-Km): -6.95; Zero Activity ([1]; Sample Data Type FLuc-Km): 7.50; Efficacy (%) FLuc-C-NLuc SDR (-ATP) [2]: 0.00%; % Activity (max response, + ATP) [3]: 9.00%; % Activity (max response, - ATP) [3]: 0.00%
4 | O=C(NCCC1CCCCC1)c1c[nH]c2ncccc12 [NCGC00480521-01] | 18 | 
5 | COCCOc1nc(N)c2[nH]c(=O)n(Cc3ccc(C(=O)O)cc3)c2n1 [NCGC00480851-01] | > 30 | 
6 | CCCCOc1nc(N)c2[nH]c(=O)n(Cc3cccc(CC(=O)OC)c3)c2n1 [NCGC00508895-01] | > 30 | 
7 | Cc1ccc(-n2ncc3c(N4CCCC(C)C4)ncnc32)cc1C (stereo not shown) [NCGC00523591-01] | 0.157 | 
8 | CC1CCCN(c2ncnc3c2cnn3-c2cccc(Cl)c2)C1 (stereo not shown) [NCGC00523592-01] | 0.785 | 
9 | CCOP(=O)(Cc1ccc(-c2nc3ccccc3s2)cc1)OCC [NCGC00538319-01] | 11.1 | 
10 | O=C(Nc1ccc(-c2nc3ccccc3s2)c(O)c1)c1ccccc1F [NCGC00594666-01] | > 30 | 
11 | COc1cccc(C(=O)Nc2ccc(O)c(-c3nc4ccccc4s3)c2)c1 [NCGC00594707-01] | > 30 | 
12 | COc1cccc(C(=O)Nc2ccc(-c3nc4ccccc4s3)c(O)c2)c1 [NCGC00594708-01] | > 30 | 
13 | Cc1ccc(C(=O)Nc2ccc(-c3nc4ccccc4s3)c(O)c2)cc1 [NCGC00594710-01] | > 30 | 
14 | O=C(Nc1ccc(-c2nc3ccccc3s2)c(O)c1)c1ccccc1 [NCGC00594711-01] | > 30 | 
15 | Cc1c(NC(=O)c2ccc(I)o2)cccc1-c1nc2ccccc2s1 [NCGC00595010-01] | 7 | 
16 | Cc1c(NC(=O)c2cccc(Cl)c2Cl)cccc1-c1nc2ccccc2s1 [NCGC00595034-01] | > 30 | 
17 | Cc1c(NC(=O)Cc2ccccc2)cccc1-c1nc2ccccc2s1 [NCGC00595047-01] | 0.7 | 
18 | O=C(Nc1ccc(O)c(-c2nc3ccccc3s2)c1)c1cc2ccccc2o1 [NCGC00595541-01] | > 30 | 
19 | CCCCC(=O)Nc1cc(-c2nc3ccccc3s2)ccc1C [NCGC00596082-01] | > 30 | 
20 | CC(C)C(=O)Nc1cc(-c2nc3ccccc3s2)ccc1Cl [NCGC00596190-01] | > 30 | 
21 | CC(=O)Oc1ccccc1C(=O)Nc1ccc(-c2nc3ccc(C)cc3s2)cc1 [NCGC00596510-01] | 8.81 | 
22 | COc1ccc(C(=O)Nc2cccc(-c3nc4ccccc4s3)c2)cc1 [NCGC00596810-02] | > 30 | 
23 | CCCN1C(=O)c2ccc(-c3nc4ccccc4s3)cc2C1=O [NCGC00597617-01] | 1.97 | 
24 | Cc1ccc2nc(-c3ccc(NC(=O)CSc4nnc(C)s4)cc3)sc2c1 [NCGC00598135-01] | 0.624 | 
25 | O=C(Nc1ccc(-c2nc3ccccc3s2)cc1)c1c(F)c(F)c(F)c(F)c1F [NCGC00598374-01] | > 30 | 
26 | CC1CCCCN1c1ncnc2c1cnn2-c1ccccc1 (stereo not shown) [NCGC00605414-01] | 1.11 | 
27 | CN(C)C1CCN(c2ncnc3c2cnn3-c2ccccc2)CC1 [NCGC00608115-01] | > 30 | 

Row | SMILES | IC50 [4] [µM] | also measured
28 | OCC1CCN(c2ncnc3c2cnn3-c2ccccc2)CC1 [NCGC00608116-01] | 12.4 | 
29 | NC(=O)CC1CCN(c2ncnc3c2cnn3-c2ccccc2)CC1 [NCGC00610672-01] | > 30 | 
30 | CCOC1CCCN(c2ncnc3c2cnn3-c2ccccc2)C1 (stereo not shown) [NCGC00616559-01] | 9.89 | 
31 | OCC1CCCN(c2ncnc3c2cnn3-c2ccccc2)C1 (stereo not shown) [NCGC00624837-01] | 0.394 | 
32 | OC1CCN(c2ncnc3c2cnn3-c2ccccc2)CC1 [NCGC00626234-01] | 15.7 | 
33 | CC(C)C(=O)NC1CCN(Cc2ccc(-c3nc4cccc(Cl)c4s3)cc2)CC1 [NCGC00632240-01] | > 30 | 
34 | O=C(Nc1ccccc1-c1nc2ccccc2s1)c1ccccc1F [NCGC00636212-01] | > 30 | 
35 | O=C(Nc1cccc(-c2nc3ccccc3s2)c1)N1CCC(O)C1 (stereo not shown) [NCGC00638360-01] | 8.81 | 
36 | CSC(=S)Nc1ccc(-c2nc3ccc(C)cc3s2)cc1 [NCGC00640908-01] | 2.48 | 
37 | NC(=O)COC(=O)c1ccccc1-c1nc2ccccc2s1 [NCGC00641952-01] | > 30 | 
38 | NC(=O)C1CCCN(c2ncnc3c2cnn3-c2ccccc2)C1 (stereo not shown) [NCGC00644764-01] | 11.1 | 
39 | O=C(O)c1ccccc1-c1nc2ccccc2s1 [NCGC00645508-01] | > 30 | 
40 | Cc1cc(Cl)ccc1-n1ncc2c(N3CCCCC3)ncnc21 [NCGC00651954-01] | 4.42 | 
41 | OCCN1CCN(c2nc(N3CCCCC3)c3cnn(-c4ccc(Cl)cc4)c3n2)CC1 [NCGC00652352-01] | > 30 | 
42 | Fc1ccc(-n2ncc3c(N4CCCCC4)nc(NN4CCOCC4)nc32)cc1 [NCGC00652353-01] | > 30 | 
43 | Cc1ccc(-n2ncc3c(N4CCCCC4)nc(NCCCO)nc32)cc1 [NCGC00652354-01] | > 30 | 
44 | CNc1ccc2cc(-c3nc4ccc(C(=O)O)cc4s3)ccc2c1 [NCGC00655706-01] | 0.007 | 
45 | CCC(CC)COC(=O)[C@H](C)N[P@](=O)(OC[C@H]1O[C@@](C#N)(c2ccc3c(N)ncnn23)[C@H](O)[C@@H]1O)Oc1ccccc1 [NCGC00686694-05] | > 30 | 
46 | Clc1cccc(-c2nc3ccccc3s2)c1 [NCGC00687703-01] | 8.81 | 
47 | O=C(CSc1nnc2ccccn12)Nc1cccc(-c2nc3ccccc3s2)c1 [NCGC00688053-01] | > 30 | 
48 | O=C(Nc1cccc(-c2nc3ccccc3s2)c1)c1cc2ccccc2oc1=O [NCGC00688715-01] | > 30 | 
49 | Cc1nonc1COc1ccc(C(=O)Nc2cccc(-c3nc4ccccc4s3)c2)cc1 [NCGC00688799-01] | 9.89 | 
50 | CCOc1ccc(NC(=O)Nc2cccc(C(=O)O)c2)cc1 [NCGC00689880-01] | 0.00881 | 
51 | CCC[C@H](C)Oc1nc(N)c2[nH]c(=O)n(CCCCCN3CCCCC3)c2n1 [NCGC00856659-01] | > 30 | 
52 | CCCCOc1nc(N)c2[nH]c(=O)n(CCCN(CCCN3CCOCC3)Cc3cccc(CC(=O)OC)c3)c2n1 [NCGC00886690-01] | > 30 | 
53 | O=C(O)c1cccc(-c2noc(-c3ccccc3F)n2)c1 [PTC124] | 0.00154 | 
